According to ChEMBL document CHEMBL1146969, “Stereoselective synthesis and fungicidal activities of (E)-alpha-(methoxyimino)-benzeneacetate derivatives containing 1,3,4-oxadiazole ring” (2006):

Test system: Botryosphaeria berengeriana
Assay: Antifungal activity against Physalospora piricola at 50 ug/ml
Assay type: functional

Going from CO/N=C(/C(=O)OC)c1ccccc1CSc1nnc(-c2ccc(OC)cc2)o1 to CO/N=C(/C(=O)OC)c1ccccc1CSc1nnc(-c2ccc(F)cc2)o1, the inhibition at 50 µg/mL rises from 93.8% to 100%.

Compared with CO/N=C(/C(=O)OC)c1ccccc1CSc1nnc(-c2cccc(Cl)c2)o1, CO/N=C(/C(=O)OC)c1ccccc1CSc1nnc(-c2ccccc2)o1 is higher in inhibition at 50 µg/mL: 92.6% for the first, 94.9% for the second.

First: CO/N=C(/C(=O)OC)c1ccccc1CSc1nnc(-c2ccc(C(F)(F)F)cc2)o1
Second: CO/N=C(/C(=O)OC)c1ccccc1CSc1nnc(-c2ccc([N+](=O)[O-])cc2)o1
The inhibition at 50 µg/mL of the first is higher: 100% for the first, 96.3% for the second.

Compared with CO/N=C(/C(=O)OC)c1ccccc1CSc1nnc(-c2ccccc2F)o1, CO/N=C(/C(=O)OC)c1ccccc1CSc1nnc(-c2ccccc2I)o1 is lower in inhibition at 50 µg/mL: 100% for the first, 96.3% for the second.

First: CO/N=C(/C(=O)OC)c1ccccc1CSc1nnc(-c2cccc(Cl)c2Cl)o1
Second: CO/N=C(/C(=O)OC)c1ccccc1CSc1nnc(-c2ccc(Cl)cc2Cl)o1
The inhibition at 50 µg/mL of the first is higher: 96.7% for the first, 88.9% for the second.

CO/N=C(/C(=O)OC)c1ccccc1CSc1nnc(-c2cc(Cl)ccc2Cl)o1 and CO/N=C(/C(=O)OC)c1ccccc1CSc1nnc(-c2cc(F)c(Cl)cc2Cl)o1 are the same in inhibition at 50 µg/mL: 100% for the first, 100% for the second.

Going from CO/N=C(/C(=O)OC)c1ccccc1CSc1nnc(-c2ccc(OCc3ccccc3)cc2)o1 to CO/N=C(/C(=O)OC)c1ccccc1CSc1nnc(-c2cccc(F)c2F)o1, the inhibition at 50 µg/mL rises from 96.9% to 100%.

Compared with CO/N=C(/C(=O)OC)c1ccccc1CSc1nnc(-c2ccc(Br)cc2F)o1, CO/N=C(/C(=O)OC)c1ccccc1COc1ccccc1C [KRESOXIM-METHYL] is lower in inhibition at 50 µg/mL: 100% for the first, 98.5% for the second.

Test system: Bipolaris maydis
Assay: Antifungal activity against Bipolaris maydis at 50 ug/ml
Assay type: functional

First: CO/N=C(/C(=O)OC)c1ccccc1CSc1nnc(-c2ccc(OC)cc2)o1
Second: CO/N=C(/C(=O)OC)c1ccccc1CSc1nnc(-c2ccc(F)cc2)o1
The inhibition at 50 µg/mL of the first is higher: 92.5% for the first, 91.7% for the second.

First: CO/N=C(/C(=O)OC)c1ccccc1CSc1nnc(-c2cccc(Cl)c2)o1
Second: CO/N=C(/C(=O)OC)c1ccccc1CSc1nnc(-c2ccccc2)o1
The inhibition at 50 µg/mL of the first is higher: 90.9% for the first, 88% for the second.

Compared with CO/N=C(/C(=O)OC)c1ccccc1CSc1nnc(-c2ccc(C(F)(F)F)cc2)o1, CO/N=C(/C(=O)OC)c1ccccc1CSc1nnc(-c2ccc([N+](=O)[O-])cc2)o1 is higher in inhibition at 50 µg/mL: 81.8% for the first, 86.4% for the second.

Compared with CO/N=C(/C(=O)OC)c1ccccc1CSc1nnc(-c2ccccc2F)o1, CO/N=C(/C(=O)OC)c1ccccc1CSc1nnc(-c2ccccc2I)o1 is lower in inhibition at 50 µg/mL: 92.3% for the first, 86.4% for the second.

Compared with CO/N=C(/C(=O)OC)c1ccccc1CSc1nnc(-c2cccc(Cl)c2Cl)o1, CO/N=C(/C(=O)OC)c1ccccc1CSc1nnc(-c2ccc(Cl)cc2Cl)o1 is higher in inhibition at 50 µg/mL: 84% for the first, 85.7% for the second.

Going from CO/N=C(/C(=O)OC)c1ccccc1CSc1nnc(-c2cc(Cl)ccc2Cl)o1 to CO/N=C(/C(=O)OC)c1ccccc1CSc1nnc(-c2cc(F)c(Cl)cc2Cl)o1, the inhibition at 50 µg/mL falls from 82.7% to 81.6%.

Going from CO/N=C(/C(=O)OC)c1ccccc1CSc1nnc(-c2ccc(OCc3ccccc3)cc2)o1 to CO/N=C(/C(=O)OC)c1ccccc1CSc1nnc(-c2cccc(F)c2F)o1, the inhibition at 50 µg/mL rises from 95% to 96.4%.

First: CO/N=C(/C(=O)OC)c1ccccc1CSc1nnc(-c2ccc(Br)cc2F)o1
Second: CO/N=C(/C(=O)OC)c1ccccc1COc1ccccc1C [KRESOXIM-METHYL]
The inhibition at 50 µg/mL of the first is higher: 92.9% for the first, 90.6% for the second.

Test system: Fusarium graminearum
Assay: Antifungal activity against Gibberella zeae at 50 ug/ml
Assay type: functional

First: CO/N=C(/C(=O)OC)c1ccccc1CSc1nnc(-c2ccc(OC)cc2)o1
Second: CO/N=C(/C(=O)OC)c1ccccc1CSc1nnc(-c2ccc(F)cc2)o1
The inhibition at 50 µg/mL of the first is lower: 85.7% for the first, 98.6% for the second.

Compared with CO/N=C(/C(=O)OC)c1ccccc1CSc1nnc(-c2cccc(Cl)c2)o1, CO/N=C(/C(=O)OC)c1ccccc1CSc1nnc(-c2ccccc2)o1 is lower in inhibition at 50 µg/mL: 96.9% for the first, 79.4% for the second.

Compared with CO/N=C(/C(=O)OC)c1ccccc1CSc1nnc(-c2ccc(C(F)(F)F)cc2)o1, CO/N=C(/C(=O)OC)c1ccccc1CSc1nnc(-c2ccc([N+](=O)[O-])cc2)o1 is lower in inhibition at 50 µg/mL: 93.8% for the first, 92.5% for the second.

First: CO/N=C(/C(=O)OC)c1ccccc1CSc1nnc(-c2ccccc2F)o1
Second: CO/N=C(/C(=O)OC)c1ccccc1CSc1nnc(-c2ccccc2I)o1
The inhibition at 50 µg/mL of the first is lower: 98% for the first, 98.4% for the second.

First: CO/N=C(/C(=O)OC)c1ccccc1CSc1nnc(-c2cccc(Cl)c2Cl)o1
Second: CO/N=C(/C(=O)OC)c1ccccc1CSc1nnc(-c2ccc(Cl)cc2Cl)o1
The inhibition at 50 µg/mL of the first is higher: 84.3% for the first, 74.3% for the second.

First: CO/N=C(/C(=O)OC)c1ccccc1CSc1nnc(-c2cc(Cl)ccc2Cl)o1
Second: CO/N=C(/C(=O)OC)c1ccccc1CSc1nnc(-c2cc(F)c(Cl)cc2Cl)o1
The inhibition at 50 µg/mL of the first is higher: 90.6% for the first, 88.6% for the second.

Compared with CO/N=C(/C(=O)OC)c1ccccc1CSc1nnc(-c2ccc(OCc3ccccc3)cc2)o1, CO/N=C(/C(=O)OC)c1ccccc1CSc1nnc(-c2cccc(F)c2F)o1 is higher in inhibition at 50 µg/mL: 89.2% for the first, 98.6% for the second.

First: CO/N=C(/C(=O)OC)c1ccccc1CSc1nnc(-c2ccc(Br)cc2F)o1
Second: CO/N=C(/C(=O)OC)c1ccccc1COc1ccccc1C [KRESOXIM-METHYL]
The inhibition at 50 µg/mL of the first is lower: 85.7% for the first, 96.8% for the second.

Test system: Botrytis cinerea
Assay: Antifungal activity against Botrytis cinereapers at 50 ug/ml
Assay type: functional

Going from CO/N=C(/C(=O)OC)c1ccccc1CSc1nnc(-c2ccc(OC)cc2)o1 to CO/N=C(/C(=O)OC)c1ccccc1CSc1nnc(-c2ccc(F)cc2)o1, the inhibition at 50 µg/mL rises from 94.2% to 100%.

Going from CO/N=C(/C(=O)OC)c1ccccc1CSc1nnc(-c2cccc(Cl)c2)o1 to CO/N=C(/C(=O)OC)c1ccccc1CSc1nnc(-c2ccccc2)o1, the inhibition at 50 µg/mL rises from 85.4% to 97.6%.

First: CO/N=C(/C(=O)OC)c1ccccc1CSc1nnc(-c2ccc(C(F)(F)F)cc2)o1
Second: CO/N=C(/C(=O)OC)c1ccccc1CSc1nnc(-c2ccc([N+](=O)[O-])cc2)o1
The inhibition at 50 µg/mL of the first is lower: 84.6% for the first, 88.5% for the second.

Compared with CO/N=C(/C(=O)OC)c1ccccc1CSc1nnc(-c2ccccc2F)o1, CO/N=C(/C(=O)OC)c1ccccc1CSc1nnc(-c2ccccc2I)o1 is lower in inhibition at 50 µg/mL: 97.6% for the first, 96.2% for the second.

Compared with CO/N=C(/C(=O)OC)c1ccccc1CSc1nnc(-c2cccc(Cl)c2Cl)o1, CO/N=C(/C(=O)OC)c1ccccc1CSc1nnc(-c2ccc(Cl)cc2Cl)o1 is higher in inhibition at 50 µg/mL: 83.3% for the first, 98.8% for the second.

Going from CO/N=C(/C(=O)OC)c1ccccc1CSc1nnc(-c2cc(Cl)ccc2Cl)o1 to CO/N=C(/C(=O)OC)c1ccccc1CSc1nnc(-c2cc(F)c(Cl)cc2Cl)o1, the inhibition at 50 µg/mL rises from 88.5% to 98.8%.

Compared with CO/N=C(/C(=O)OC)c1ccccc1CSc1nnc(-c2ccc(OCc3ccccc3)cc2)o1, CO/N=C(/C(=O)OC)c1ccccc1CSc1nnc(-c2cccc(F)c2F)o1 is higher in inhibition at 50 µg/mL: 90.6% for the first, 100% for the second.

Compared with CO/N=C(/C(=O)OC)c1ccccc1CSc1nnc(-c2ccc(Br)cc2F)o1, CO/N=C(/C(=O)OC)c1ccccc1COc1ccccc1C [KRESOXIM-METHYL] is lower in inhibition at 50 µg/mL: 100% for the first, 97.2% for the second.

Test system: Thanatephorus cucumeris
Assay: Antifungal activity against Rhizoctonia solani at 50 ug/ml
Assay type: functional

Going from CO/N=C(/C(=O)OC)c1ccccc1CSc1nnc(-c2ccc(OC)cc2)o1 to CO/N=C(/C(=O)OC)c1ccccc1CSc1nnc(-c2ccc(F)cc2)o1, the inhibition at 50 µg/mL rises from 91.8% to 97.9%.

Compared with CO/N=C(/C(=O)OC)c1ccccc1CSc1nnc(-c2cccc(Cl)c2)o1, CO/N=C(/C(=O)OC)c1ccccc1CSc1nnc(-c2ccccc2)o1 is lower in inhibition at 50 µg/mL: 94.4% for the first, 92.4% for the second.

Going from CO/N=C(/C(=O)OC)c1ccccc1CSc1nnc(-c2ccc(C(F)(F)F)cc2)o1 to CO/N=C(/C(=O)OC)c1ccccc1CSc1nnc(-c2ccc([N+](=O)[O-])cc2)o1, the inhibition at 50 µg/mL falls from 95.6% to 85.9%.

Compared with CO/N=C(/C(=O)OC)c1ccccc1CSc1nnc(-c2ccccc2F)o1, CO/N=C(/C(=O)OC)c1ccccc1CSc1nnc(-c2ccccc2I)o1 is lower in inhibition at 50 µg/mL: 92.6% for the first, 90.2% for the second.

Compared with CO/N=C(/C(=O)OC)c1ccccc1CSc1nnc(-c2cccc(Cl)c2Cl)o1, CO/N=C(/C(=O)OC)c1ccccc1CSc1nnc(-c2ccc(Cl)cc2Cl)o1 is higher in inhibition at 50 µg/mL: 91.6% for the first, 92.6% for the second.

Going from CO/N=C(/C(=O)OC)c1ccccc1CSc1nnc(-c2cc(Cl)ccc2Cl)o1 to CO/N=C(/C(=O)OC)c1ccccc1CSc1nnc(-c2cc(F)c(Cl)cc2Cl)o1, the inhibition at 50 µg/mL rises from 97% to 97.8%.

Going from CO/N=C(/C(=O)OC)c1ccccc1CSc1nnc(-c2ccc(OCc3ccccc3)cc2)o1 to CO/N=C(/C(=O)OC)c1ccccc1CSc1nnc(-c2cccc(F)c2F)o1, the inhibition at 50 µg/mL rises from 98% to 100%.

Going from CO/N=C(/C(=O)OC)c1ccccc1CSc1nnc(-c2ccc(Br)cc2F)o1 to CO/N=C(/C(=O)OC)c1ccccc1COc1ccccc1C [KRESOXIM-METHYL], the inhibition at 50 µg/mL falls from 97.9% to 66.1%.
